Results as given in patent US8399381B2, “Condensed heterocyclic sulfonyl urea compound, a herbicide containing the same, and a method for weed control using the same” (Sumitomo Chemical Company, Limited, priority 2002, dated 2013).

Experiments:
[1] = test system: sulfonylurea herbicide-resistant Lindernia procumbens (Krock.) Philcox; experiment: Paddy pot weeding test, flooded, two-leaf stage (Test Example 1); type: in vivo; settings: 1 g/are, three weeks after treatment, resistant biotype, Tajiri Town, Miyagi Pref.
Source text: (§1) A 5 cm×5 cm Jiffy Pot™ was charged with paddy soil, then water was introduced into each pot, seeds of sulfonylurea herbicide-sensitive Scirpus juncoides var. ohwianus, sulfonylurea herbicide-sensitive Lindernia procumbens (Krock.) Philcox, sulfonylurea herbicide-sensitive Lindernia dubia subsp. major Pennell, sulfonylurea herbicide-resistant Scirpus juncoides var. ohwianus, sulfonylurea herbicide-resistant Lindernia procumbens (Krock.) Philcox and sulfonylurea herbicide-resistant Lindernia dubia subsp. major Pennell were sowed therein and cultivated for a prescribed period under flooding conditions. When the plants reached the two-leave stage, the prescribed number of Jiffy Pots where the plants had been grown were transferred to a 150-cm^2 rectangular plastic pot, and water was introduced to a height of 3 cm, and a chemical diluent containing a compound was applied into the pot in an amount of 1 g/are. The chemical diluent was prepared by dissolving 1.5 g compound in 2 L of N,N-dimethylformamide (DMF) containing, 2% (W/V) surfactant Tween™ 20 and then diluting it with water to adjust the total volume to 10 L.

[2] = test system: sulfonylurea herbicide-resistant Lindernia dubia subsp. major Pennell; experiment: as above; type: in vivo; settings: 1 g/are, three weeks after treatment, resistant biotype, Kawanishi Town, Yamagata Pref.
Source text: as §1

[3] = test system: sulfonylurea herbicide-sensitive Lindernia dubia subsp. major Pennell; experiment: as above; type: in vivo; settings: 1 g/are, three weeks after treatment, sensitive biotype, Makabe Town, Ibaraki Pref.
Source text: as §1

[4] = test system: sulfonylurea herbicide-resistant Scirpus juncoides var. ohwianus; experiment: as above; type: in vivo; settings: 1 g/are, three weeks after treatment, resistant biotype, Iwamisawa City, Hokkaido
Source text: as §1

[5] = test system: sulfonylurea herbicide-sensitive Lindernia procumbens (Krock.) Philcox; experiment: as above; type: in vivo; settings: 1 g/are, three weeks after treatment, sensitive biotype, Kyoto Pref.
Source text: as §1

[6] = test system: sulfonylurea herbicide-sensitive Scirpus juncoides var. ohwianus; experiment: as above; type: in vivo; settings: 1 g/are, three weeks after treatment, sensitive biotype, Kyoto Pref.
Source text: as §1

SMILES	R Lindernia procumbens (Krock.) Philcox (effect index) [1]	R Lindernia dubia subsp. major Pennell (effect index) [2]	S Lindernia dubia subsp. major Pennell (effect index) [3]	R Scirpus juncoides var. ohwianus (effect index) [4]	S Lindernia procumbens (Krock.) Philcox (effect index) [5]	S Scirpus juncoides var. ohwianus (effect index) [6]	melting point
CCc1nc2ccc(N(C)C)nn2c1NC(=O)NS(=O)(=O)c1nc(OC)cc(OC)n1 [Compound No. 4]	3 (moderate 41 to 60)	5 (excellent 81 to 100)	5 (excellent 81 to 100)	5 (excellent 81 to 100)	5 (excellent 81 to 100)	5 (excellent 81 to 100)	174 to 176 °C
CCc1ccc2nc(C)c(S(=O)(=O)NC(=O)Nc3nc(OC)cc(OC)n3)n2n1 [Compound No. 13, 1-(4,6-dimethoxypyrimidin-2-yl)-3-(6-ethyl-2-methylimidazo[1,2-b]pyridazin-3-ylsulfonyl)urea]	5 (excellent 81 to 100)	5 (excellent 81 to 100)	5 (excellent 81 to 100)	5 (excellent 81 to 100)	5 (excellent 81 to 100)	5 (excellent 81 to 100)	172 to 174 °C
CCCCc1ccc2nc(Cl)c(S(=O)(=O)NC(=O)Nc3nc(OC)cc(OC)n3)n2n1 [Compound No. 41]	4 (high 61 to 80)	5 (excellent 81 to 100)	5 (excellent 81 to 100)	5 (excellent 81 to 100)	5 (excellent 81 to 100)	5 (excellent 81 to 100)	
COc1cc(OC)nc(S(=O)(=O)NC(=O)Nc2c(C)nc3ccc(SC)nn23)n1 [Compound No. 19]	5 (excellent 81 to 100)	4 (high 61 to 80)	5 (excellent 81 to 100)	5 (excellent 81 to 100)	5 (excellent 81 to 100)	5 (excellent 81 to 100)	178 to 180 °C (dec.)
CCc1nc2ccc(S(C)(=O)=O)nn2c1NC(=O)NS(=O)(=O)c1nc(OC)cc(OC)n1 [Compound No. 9]	3 (moderate 41 to 60)	5 (excellent 81 to 100)	5 (excellent 81 to 100)	5 (excellent 81 to 100)	5 (excellent 81 to 100)	5 (excellent 81 to 100)	206 to 208 °C
COc1cc(OC)nc(S(=O)(=O)NC(=O)Nc2c(Cl)nc3ccc(SC)nn23)n1 [Compound No. 26]	3 (moderate 41 to 60)	4 (high 61 to 80)	5 (excellent 81 to 100)	5 (excellent 81 to 100)	5 (excellent 81 to 100)	5 (excellent 81 to 100)	163 to 165 °C
COc1cc(OC)nc(S(=O)(=O)NC(=O)Nc2c(C(F)(F)F)nc3ccc(SC)nn23)n1 [Compound No. 12]	3 (moderate 41 to 60)	5 (excellent 81 to 100)	5 (excellent 81 to 100)	5 (excellent 81 to 100)	5 (excellent 81 to 100)	5 (excellent 81 to 100)	266 to 267 °C
CCc1ccc2nc(Cl)c(NC(=O)NS(=O)(=O)c3nc(OC)cc(OC)n3)n2n1 [Compound No. 37]	5 (excellent 81 to 100)	5 (excellent 81 to 100)	5 (excellent 81 to 100)	5 (excellent 81 to 100)	5 (excellent 81 to 100)	5 (excellent 81 to 100)	162 to 166 °C
COc1cc(OC)nc(NC(=O)NS(=O)(=O)c2c(C)nc3cccnn23)n1 [comparison 1, reference compound]	0 (none 0)	1 (very slight 1 to 20)	5 (excellent 81 to 100)	2 (slight 21 to 40)	5 (excellent 81 to 100)	5 (excellent 81 to 100)	
COc1cc(OC)nc(NC(=O)NS(=O)(=O)c2c(Cl)nc3cccnn23)n1 [comparison 2, reference compound]	0 (none 0)	0 (none 0)	5 (excellent 81 to 100)	0 (none 0)	5 (excellent 81 to 100)	5 (excellent 81 to 100)	
COc1cc(OC)nc(S(=O)(=O)NC(=O)Nc2c(S(C)(=O)=O)nn3ccsc23)n1 [Compound No. 35]	3 (moderate 41 to 60)	5 (excellent 81 to 100)	5 (excellent 81 to 100)	5 (excellent 81 to 100)	5 (excellent 81 to 100)	5 (excellent 81 to 100)	190 to 201 °C
CCSc1ccc2nc(C)c(NC(=O)NS(=O)(=O)c3nc(OC)cc(OC)n3)n2n1 [Compound No. 18]	5 (excellent 81 to 100)	5 (excellent 81 to 100)	5 (excellent 81 to 100)	5 (excellent 81 to 100)	5 (excellent 81 to 100)	5 (excellent 81 to 100)	163 to 165 °C
CCNc1ccc2nc(Cl)c(NC(=O)NS(=O)(=O)c3nc(OC)cc(OC)n3)n2n1 [Compound No. 3]	5 (excellent 81 to 100)	5 (excellent 81 to 100)	5 (excellent 81 to 100)	5 (excellent 81 to 100)	5 (excellent 81 to 100)	5 (excellent 81 to 100)	169 to 171 °C
CCc1nc2ccc(SC)nn2c1NC(=O)NS(=O)(=O)c1nc(OC)cc(OC)n1 [Compound No. 8]	5 (excellent 81 to 100)	5 (excellent 81 to 100)	5 (excellent 81 to 100)	5 (excellent 81 to 100)	5 (excellent 81 to 100)	5 (excellent 81 to 100)	146 to 148 °C
